Laboratory results from US20110046223A1, “TREATMENT OF NEUROFIBROMATOSIS” (RAMOT AT TEL-AVIV UNIVERSITY LTD., priority 2006, published 2011).

Tested on: Ras-GTP
Assay: steady-state Ras-GTP, GST-RBD pull-down assay
Assay type: cell-based, human
Conditions: 75 μM FTS, 48 hours, TS265P21, 90-8, and ST88-14 cells, P<0.03
Protocol: Unless otherwise indicated, cells were lysed 48 hours after being treated with lysis buffer, as described in Haklai, et al., supra. […] Protein bands were visualized by ECL and quantified by densitometry with Image Master VDS-CL (Amersham) using TINA 2.0 software (Ray Tests). To obtain reliable comparisons between replicated experiments for statistical analysis, a standardization procedure was used, in which the density of each given protein band as recorded with its specific Ab, was normalized. […] The standard average density was defined as 1.0, and each of the individually determined bands was related to this value. […] Actin cytoskeletal elements were labeled with rhodamine-phalloidin, and digital fluorescence images were collected on a Zeiss LSM 510 confocal microscope fitted with fluorescein and rhodamine filters, as described in Gana-Weisz, M., et al., supra.
To determine whether the steady-state levels of active Ras in the MPNST cell lines correlated with neurofibromin deficiency, the GST-Ras binding domain of Raf-1 (RBD) pull-down assay and Western immunoblotting with anti-Ras Ab was performed. […] Thus, the relatively large amounts of Ras-GTP detected in the MPNST cell lines and the relatively small amounts in the non-NF-1 MPNST (FIG. 1D) correlated well with the observed neurofibromin deficiency (FIG. 1C). […]

With `CC(C)=CCC/C(C)=C/CC/C(C)=C/CSc1ccccc1C(=O)O` [FTS, S-farnesylthiosalicylic acid] the “reduction in steady-state levels of Ras-GTP” value was 25%-55%.
